Patent publication US20190010182A1, “SALT OF (SS)-ADENOSYL METHIONINE WITH INOSITOL HEXAPHOSPHATE, AND PROCESS FOR THE PREPARATION THEREOF” (GNOSIS S.p.A., priority 2017, published 2019)

Columns and labels:
[1] = accelerated stability test, thermostatic stove at +55° C., 5 days; format: physicochemical
Method: The product obtained as described in Example 6 (comprising SAMe and phytic acid) and a sample of SAMe inositol hexaphosphate obtained as described in Example 5 are subjected to an accelerated stability test, incubated in a thermostatic stove at +55° C., and the analyses are repeated after 5 days.
The samples are analysed for the following values:
SAMe ion content (total of all enantiomers) determined by HPLC and expressed as % by weight enantiomeric purity, determined by HPLC and expressed as % of (SS) isomer active ingredient content, calculated by multiplying the previous two values and expressed as % by weight of (SS)SAMe overall purity, determined by HPLC as SAMe area/total area of chromatogram, expressed as area %. The figure comprises the values of all known degradation impurities.

[2] = Pharmacokinetic profile in the rat (SAMe blood levels, AUC); format: in vivo, Sprague Dawley rats; settings: by cannula in water, 134 mg/kg and 95 mg/kg, compared with SAMe Pates at equal SAMe ion dose
Method: 70 Sprague Dawley rats (35 male and 35 female), aged 7-9 weeks and weighing 176-200 g, were acclimatized in a cage for two weeks before the start of the treatment, maintained at +22° C. and 55% relative humidity. The rats were fed on 4RF 21 (Mucedola) feed, and weighed before the beginning and at the end of the test. At the time of treatment, 32 animals per group (16 males and 16 females) were selected from those with the most similar weights, and assigned to the two treatments.
The product was administered by cannula, dissolved in water, at two dose levels, namely 134 mg/kg and 95 mg/kg. The rats were fasted overnight before administration and for a further two hours after administration. The two equimolar doses guaranteed an equal intake of SAMe ion.
The blood levels of SAMe were assayed by taking a sample from the tail vein at fixed intervals, at times 0 (pre-administration), 0.5, 1, 1.5, 2, 4, 8 and 24 hours after administration. The blood samples were centrifuged after addition of EDTA to separate the plasma from the cell fraction. The plasma was then analysed by HPLC according to the method reported in Wise, Fullerton J. Liq. Chromatogr. […]
The SAMe plasma concentration values are also used to determine, according to the Area Under Curve (AUC) calculation, the total quantity of active ingredient absorbed, obtaining the values set out in FIG. 2.

[3] = stability test, storage at +25° C. in a thermostatic stove up to 6 months; format: physicochemical; settings: FIG. 4
Method: FIG. 3 depicts SAMe ion content analysis in a product stability test, storing samples at 25° C. in a thermostatic stove up to 6 months. The test measured the SAMe ion content (as percent loss of SAMe ion) in the (SS)SAMe inositol hexaphosphate salt (samples AT1003 and AT1005), the commercial SAMe 1,4-butanedisulphonate salt (sample SD4Test1), the commercial SAMe Pates salt (S1S1057B) and the SAMe-metal-phytate complex obtained according to EP1896489 (sample 04B17DS).
FIG. 4 further depicts SAMe ion content analysis in a product stability test for diastereomeric purity, storing samples at 25° C. in a thermostatic stove up to 6 months. The test measured the (SS)SAMe diastereoisomer ion content (as percent loss of (SS)SAMe diastereomer) in the (SS)SAMe inositol hexaphosphate salt (samples AT1003 and AT1005), and also in the commercial SAMe 1,4-butanedisulphonate salt (sample SD4Test1), the commercial SAMe Pates salt (S1S1057B) and the SAMe-metal-phytate complex obtained according to EP1896489 (sample 04B17DS).
Some samples of the products obtained as described in the previous examples are subjected to stability tests, storing them at +25° C., in a thermostatic stove. […]

C[S@@+](CC[C@H](N)C(=O)[O-])C[C@H]1O[C@@H](n2cnc3c(N)ncnc32)[C@H](O)[C@@H]1O.O=P(O)(O)O[C@H]1[C@H](OP(=O)(O)O)[C@@H](OP(=O)(O)O)[C@H](OP(=O)(O)O)[C@@H](OP(=O)(O)O)[C@H]1OP(=O)(O)O [AT1003, (SS)-adenosyl methionine with myo-inositol 1,2,3,4,5,6 hexakisphosphate]
content of the active ingredient (SS)SAMe after the stress test ([1]; 5 days at +55° C., compared with 04B17DS): maintains a higher content | degradation by isomerization after the stress test ([1]; 5 days at +55° C., comparison of AT1003 and 04B17DS): surprisingly lower | (SS) enantiomer (enantiomeric purity, HPLC), final value ([1]; after 5 days at +55° C.): 69.56% | SAMe content (SAMe ion, total of all enantiomers, HPLC), final value ([1]; after 5 days at +55° C.): 30.6% w/w | Purity (% area), final value ([1]; after 5 days at +55° C., HPLC SAMe area/total area): 90.0% area | (SS)SAMe content (active ingredient content), final value ([1]; after 5 days at +55° C., SAMe content x enantiomeric purity, % by weight): 21.28% | (SS) enantiomer (enantiomeric purity, HPLC), starting value ([1]; before incubation at +55° C.): 77.2% | SAMe content (SAMe ion, total of all enantiomers, HPLC), starting value ([1]; before incubation at +55° C.): 34.45% w/w | Purity (% area), starting value ([1]; before incubation at +55° C., HPLC SAMe area/total area): 95.98% area | (SS)SAMe content (active ingredient content), starting value ([1]; before incubation at +55° C., SAMe content x enantiomeric purity, % by weight): 26.59% | plasma concentration of active ingredient (SAMe) ([2]; FIG. 1): higher plasma concentration | absorption (AUC 8 hours of SAMe plasma concentration) ([2]; FIG. 2): better absorption | (SS)SAMe isomer content stability (percent loss of (SS)SAMe diastereomer) [3]: stable for longer
